Entries after “also recorded” stand apart in the source; their conditions may differ. Counter-ions that a name gives are not always drawn.
Experiments:
Assay type in all cases: in vivo, Vitis vinifera
[1] = system: Crimson Seedless grape clusters; assay: Field study, Example 1: visual rating of red grape coloration, % of berries with marketable color
Protocol: (§1) A field study was conducted in California to compare the efficacy of S-ABA to 3′-methyl-(S)-ABA in promoting red grape coloration. S-ABA and 3′-methyl-(S)-ABA were formulated as aqueous solutions of the corresponding potassium salt to the desired concentrations with the final pHs being between 6.5 and 7.2. Individual Crimson Seedless grape clusters were selected and tagged, with 20 tagged clusters per treatment. The treatments were applied as cluster-directed sprays using a trigger sprayer at 15 to 20 mL per cluster to ensured good coverage of the grapes. Application of 15 to 20 milliliters per cluster simulates application of about 109 gallons per acre directed at the approximately 40 clusters per vine in a vineyard with 518 vines per acre. Based on these estimates, Applicant determined the approximate grams per acre. The equation is as follows: 20 ml/cluster×40 cluster/vine=800 ml/vine×518 vine/acre=(414,400 ml/acre)/(1000 ml/liter)=414 liters/acre. An estimation of grams per acre was made by multiplying the mg per cluster with 20,720 clusters/acre (40 clusters/vine×518 vines/acre=20,720 clusters/acre).
(§2) Periodically after the treatments, the grape clusters were evaluated for color development by visual ratings over a six-week period. The coloration was graded on a 1 to 8 grading scale, where a rating of 1 has very little or no red color and a rating of 8 has a deep or dark red color. The percentages of berries that reached marketable red coloration for each cluster were averaged and recorded for each treatment. Additionally, representative berries from each treatment group were harvested about four weeks after treatment and analyzed for anthocyanin content.

Crimson Seedless grapes = assay: Trial, Example 2: visual color rating of grape clusters on a 1 to 8 scale; design: key to Color Ratings: 1 = little/no red color, 8 = deep/dark red color; details: for Color Ratings: applied day 0 and day 11, 1 to 8 grading scale
Protocol: Another trial was conducted in California on Crimson Seedless grapes to compare the efficacy of S-ABA, 3′-methyl-(S)-ABA and 3′-propargyl-(S)-ABA in promoting coloration. All three compounds were formulated as aqueous solutions of the corresponding potassium salt to the desired concentrations, with the final pHs being between 6.5 and 7.2. Individual Crimson Seedless grape clusters were selected and tagged, with 20 tagged clusters per treatment. The solutions were applied as cluster-directed sprays using a trigger sprayer at 15 to 20 milliliters per cluster which ensured good coverage of the grapes. The treatments were applied on day 0 and day 11 of the trial. Periodically during the trial, the grape clusters were evaluated for color development by visual ratings over a six-week period and the coloration was graded on a 1 to 8 grading scale, where a rating of 1 has very little or no red color and a rating of 8 has a deep or dark red color.

[2] = system: Crimson Seedless grape clusters; assay: Field study, Example 1: anthocyanin content of berries harvested about four weeks after treatment; details: berries harvested about four weeks after treatment
Protocol: as §1, §2

CC1=CC(=O)CC(C)(C)[C@@]1(O)/C=C/C(C)=C/C(=O)O [S-ABA, K^+ salt, (S)-abscisic acid] was tested, and the “Coloring Ratings, % of the berries with marketable color” value (“Coloring Ratings, % of the berries” for short) ([1]; 200 ppm, 3-4 mg/cluster, 60-80 grams/acre, 7 DAT) was 41%, the “Coloring Ratings, % of the berries” value ([1]; 200 ppm, 3-4 mg/cluster, 60-80 grams/acre, 14 DAT) was 78% and the “Coloring Ratings, % of the berries” value ([1]; 200 ppm, 3-4 mg/cluster, 60-80 grams/acre, 27 DAT) was 84%. For the same compound, the “Coloring Ratings, % of the berries” value ([1]; 200 ppm, 3-4 mg/cluster, 60-80 grams/acre, 33 DAT) was 88%, the “Coloring Ratings, % of the berries” value ([1]; 200 ppm, 3-4 mg/cluster, 60-80 grams/acre, 43 DAT) was 89% and the “Coloring Ratings, % of the berries” value ([1]; 400 ppm, 6-8 mg/cluster, 120-160 grams/acre, 7 DAT) was 47%. For the same compound, the “Coloring Ratings, % of the berries” value ([1]; 400 ppm, 6-8 mg/cluster, 120-160 grams/acre, 14 DAT) was 80%, the “Coloring Ratings, % of the berries” value ([1]; 400 ppm, 6-8 mg/cluster, 120-160 grams/acre, 27 DAT) was 85% and the “Coloring Ratings, % of the berries” value ([1]; 400 ppm, 6-8 mg/cluster, 120-160 grams/acre, 33 DAT) was 88%. The “Coloring Ratings, % of the berries” value ([1]; 400 ppm, 6-8 mg/cluster, 120-160 grams/acre, 43 DAT) was 91%, the “time to reach ~90% marketable coloration” value ([1]; 400 ppm, 6 to 8 mg per cluster) was “five weeks; also recorded: five or six weeks” and the “Color Ratings” value (Crimson Seedless grapes; 200 ppm, 3-4 mg/cluster, 60-80 g/acre, 3 DAT) was 1. For the same compound, the “Color Ratings” value (Crimson Seedless grapes; 200 ppm, 3-4 mg/cluster, 60-80 g/acre, 10 DAT) was 2.2, the “Color Ratings” value (Crimson Seedless grapes; 200 ppm, 3-4 mg/cluster, 60-80 g/acre, 14 DAT) was 2.6 and the “Color Ratings” value (Crimson Seedless grapes; 200 ppm, 3-4 mg/cluster, 60-80 g/acre, 21 DAT) was 4.1. The “Color Ratings” value (Crimson Seedless grapes; 200 ppm, 3-4 mg/cluster, 60-80 g/acre, 31 DAT) was 5.1, the “Color Ratings” value (Crimson Seedless grapes; 200 ppm, 3-4 mg/cluster, 60-80 g/acre, 41 DAT (end of six-week evaluation)) was 5.4 and the “Color Ratings” value (Crimson Seedless grapes; 400 ppm, 6-8 mg/cluster, 120-160 g/acre, 3 DAT) was 1. The “Color Ratings” value (Crimson Seedless grapes; 400 ppm, 6-8 mg/cluster, 120-160 g/acre, 10 DAT) was 2.9, the “Color Ratings” value (Crimson Seedless grapes; 400 ppm, 6-8 mg/cluster, 120-160 g/acre, 14 DAT) was 3.5 and the “Color Ratings” value (Crimson Seedless grapes; 400 ppm, 6-8 mg/cluster, 120-160 g/acre, 21 DAT) was 4.5. For the same compound, the “Color Ratings” value (Crimson Seedless grapes; 400 ppm, 6-8 mg/cluster, 120-160 g/acre, 31 DAT) was 5.9, the “Color Ratings” value (Crimson Seedless grapes; 400 ppm, 6-8 mg/cluster, 120-160 g/acre, 41 DAT (end of six-week evaluation)) was 6.4 and the “red color development in comparison with the untreated control” value (Crimson Seedless grapes; six-week evaluation period) was “dose-dependent accelerated red color development”. The “Total Anthocyanin Content” value ([2]; 3-4 mg/cluster (200 ppm, 15-20 mL)) was 73 mg/L and the “Total Anthocyanin Content” value ([2]; 6-8 mg/cluster (400 ppm, 15-20 mL)) was 83 mg/L.

— US20160338351A1, “(S)-ABSCISIC ACID DERIVATIVES FOR ENHANCED GRAPE COLORATION” (Valent BioSciences Corporation, priority 2015, published 2016)
